Among the data in PubChem BioAssay (NCI) are TGI and GI50 values, retold here.

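Five compound concentrations were applied to cells in 96-well plates for 48 hours; endpoints were derived by simple linear interpolation of the resulting dose-response curve. The concentration for 50% growth inhibition is given as GI50. TGI: concentration producing complete growth inhibition.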

Among the test systems are HCT-15 colon; UACC-257 melanoma; A549 NSCLC; HL-60(TB) leukemia; SN12C renal; UO-31 renal; OVCAR-8 ovarian; HS 578T breast; MDA-MB-231 breast; HOP-92 NSCLC.
What all share (test): inhibition of tumour cell growth, NCI panel, 48 h

In the case of `CCCCCCCCCCCC(=O)OC(COC(N)=O)COc1ccc(Cl)cc1` (configuration not stated), the TGI in the test on HCT-15 colon is 91.3 µM; with UACC-257 melanoma, 51 µM; in the test with A549 NSCLC it was 36.8 µM; in the test with HL-60(TB) leukemia, 33.3 µM; in the test on SN12C renal, 70 µM; with UO-31 renal, over 100 µM. Further, in the test on OVCAR-8 ovarian, the TGI is 33.6 µM.

For `COc1ccc(/C=C2/CN(CCC#N)C/C(=C\c3ccc(OC)cc3)C2=O)cc1`, the GI50 with HCT-15 colon is 2.51 µM; with UACC-257 melanoma, 2.63 µM; in the test with HS 578T breast, 2.98 µM; in the test with A549 NSCLC it was 2.92 µM; in the test with MDA-MB-231 breast, 2.71 µM; in the test on SN12C renal it was 2.18 µM. Further, the GI50 was 1.74 µM with UO-31 renal, 3.05 µM in the test on OVCAR-8 ovarian and 1.85 µM with HOP-92 NSCLC. Moreover, the TGI in the test with HCT-15 colon is 21.8 µM; in the test with UACC-257 melanoma, 7.44 µM; with HS 578T breast it was 64.4 µM; with A549 NSCLC it was over 100 µM; in the test on MDA-MB-231 breast, 15 µM; in the test with SN12C renal, 6.31 µM. Besides, the TGI in the test on UO-31 renal is 4.86 µM; in the test with OVCAR-8 ovarian it was over 100 µM; in the test on HOP-92 NSCLC it was 20.8 µM.

With `NCC1(N2CCOCC2)C2CCCC21CNc1ccccc1` (configuration not stated), the TGI in the test with UACC-257 melanoma, with A549 NSCLC, with HL-60(TB) leukemia, in the test with SN12C renal, with UO-31 renal and in the test on OVCAR-8 ovarian was over 100 µM each time. For the same compound, the TGI in the test on HOP-92 NSCLC was over 100 µM.

`NC(=O)c1ncn(Cc2ccccc2)c1CNC(N)=S`: the TGI in the test with HCT-15 colon, in the test on A549 NSCLC, in the test with HL-60(TB) leukemia, in the test on SN12C renal, in the test on UO-31 renal and in the test on OVCAR-8 ovarian was over 100 µM each time.

Regarding `O=C(/C=C/c1ccc(O)cc1)c1cc(Cl)ccc1O`, the TGI is over 100 µM in the test with UACC-257 melanoma; over 100 µM in the test with A549 NSCLC; 45.8 µM with HL-60(TB) leukemia; over 100 µM with SN12C renal; 70.5 µM in the test on UO-31 renal; over 100 µM in the test with OVCAR-8 ovarian. In addition, in the test on HOP-92 NSCLC, the TGI was over 100 µM.

As to `O=C1c2ccccc2C(=O)c2c1ccc1c2N=C(c2ccc(Br)cc2)CC(c2cccc3ccccc23)N1` (configuration not stated), the TGI in the test on HCT-15 colon, with UACC-257 melanoma, in the test with A549 NSCLC, with HL-60(TB) leukemia, in the test on SN12C renal and with UO-31 renal was over 100 µM throughout. In the test on OVCAR-8 ovarian, this compound gave a TGI of over 100 µM.

Take `Cc1cc(C#Cc2ccccc2)ccc1-n1c(/C=C/c2cc(O)ccc2O)nc2ccccc2c1=O`: the GI50 is 1.03 µM with HCT-15 colon; 1.56 µM in the test on UACC-257 melanoma; 1.54 µM with HS 578T breast; 1.28 µM in the test with A549 NSCLC; 1.56 µM with MDA-MB-231 breast; 1.62 µM in the test on SN12C renal. The GI50 is 1.16 µM in the test on UO-31 renal, 1.94 µM in the test with OVCAR-8 ovarian and 1.54 µM with HOP-92 NSCLC. Further, the TGI in the test on HCT-15 colon was 2.21 µM; in the test on UACC-257 melanoma, 2.94 µM; with HS 578T breast, 7.95 µM; with A549 NSCLC, 2.68 µM; in the test with MDA-MB-231 breast, 3.16 µM; in the test with SN12C renal it was 3.01 µM. Further, the TGI came to 3.1 µM with UO-31 renal, 5.4 µM in the test on OVCAR-8 ovarian and 4.33 µM in the test on HOP-92 NSCLC.

For the compound `Cn1cnc([N+](=O)[O-])c1Sc1nc2ccc([N+](=O)[O-])cc2[nH]1`, the TGI in the test with HCT-15 colon is 38.8 µM; with UACC-257 melanoma, 33.5 µM; in the test with A549 NSCLC, over 100 µM; in the test with HL-60(TB) leukemia it was over 100 µM; with UO-31 renal, 67.6 µM; in the test on OVCAR-8 ovarian, 39.2 µM. In addition, the TGI with HOP-92 NSCLC worked out at 39.8 µM.

On to `CC1CC(c2ccc(Cl)c(Cl)c2)=Nc2ccccc2S1` (configuration not stated), for which the TGI in the test with HCT-15 colon, in the test with UACC-257 melanoma, in the test with A549 NSCLC, with HL-60(TB) leukemia, in the test with SN12C renal and in the test with UO-31 renal was over 100 µM throughout. In addition, the TGI with OVCAR-8 ovarian and in the test on HOP-92 NSCLC was over 100 µM in each case.

With `CC1(C)CC(N2CCN(C3CC(C)(C)NC(C)(C)C3)CC2)CC(C)(C)N1`, the TGI in the test on HCT-15 colon, with UACC-257 melanoma, in the test on A549 NSCLC, in the test with HL-60(TB) leukemia, with SN12C renal and in the test on UO-31 renal was over 100 µM each time. In addition, the TGI in the test on OVCAR-8 ovarian and with HOP-92 NSCLC was over 100 µM throughout.

`N#Cc1cn(-c2c3ccccc3nc3ccccc23)c(=O)[nH]c1=O`: the TGI was found to be 31.9 µM with HCT-15 colon; 27.7 µM in the test with UACC-257 melanoma; 24 µM in the test with A549 NSCLC; 30.6 µM in the test with HL-60(TB) leukemia; 25 µM with UO-31 renal; 27.6 µM in the test with OVCAR-8 ovarian. Besides, the TGI in the test with HOP-92 NSCLC amounted to 23.1 µM.

Turning to `Cc1ccc2nc3c(C)cc(=O)cc-3sc2c1`, the TGI in the test on HCT-15 colon worked out at 40.9 µM; in the test on UACC-257 melanoma, 59.2 µM; in the test with A549 NSCLC, 54.6 µM; in the test with HL-60(TB) leukemia it was 25.2 µM; with SN12C renal it was 48.8 µM; in the test with UO-31 renal, 83.9 µM. Also, the TGI is over 100 µM in the test on OVCAR-8 ovarian and 76.7 µM in the test with HOP-92 NSCLC.

As to `NC(=O)c1cc([N+](=O)[O-])cc([N+](=O)[O-])c1`, the TGI with HCT-15 colon, in the test with UACC-257 melanoma, in the test with A549 NSCLC, with HL-60(TB) leukemia, with SN12C renal and with UO-31 renal was over 100 µM throughout. Also, the TGI in the test on OVCAR-8 ovarian and in the test with HOP-92 NSCLC was over 100 µM throughout.

In the case of `CCCCC(C(=O)CCC(=O)Nc1ccc(Cl)cc1)C(=O)C(C)C` (configuration not stated), the TGI with HCT-15 colon, in the test on UACC-257 melanoma, in the test with A549 NSCLC, with HL-60(TB) leukemia, in the test with SN12C renal and in the test on UO-31 renal was over 100 µM in each case. The TGI in the test with OVCAR-8 ovarian and in the test with HOP-92 NSCLC was over 100 µM throughout.

As for `ClCCCCOC1CCCCO1` (configuration not stated), the TGI with HCT-15 colon, in the test on UACC-257 melanoma, in the test with A549 NSCLC, in the test with HL-60(TB) leukemia, in the test on SN12C renal and in the test with UO-31 renal was over 100 µM each time. Moreover, the TGI in the test on OVCAR-8 ovarian and in the test on HOP-92 NSCLC was over 100 µM each time.

Regarding `N#Cc1c(N)c(C#N)c2c(c1-c1ccc(Cl)cc1)COc1ccc(F)cc1-2`, the GI50 in the test on HCT-15 colon is 43.8 µM; with UACC-257 melanoma it was over 50 µM; in the test with A549 NSCLC, 42.6 µM; in the test with HL-60(TB) leukemia it was over 50 µM; in the test on MDA-MB-231 breast it was 7.71 µM; in the test with SN12C renal, over 50 µM. Further, the GI50 in the test on UO-31 renal is 10.9 µM; in the test on OVCAR-8 ovarian, over 50 µM; in the test with HOP-92 NSCLC it was over 50 µM. Further, the TGI is over 50 µM with HCT-15 colon; over 50 µM with UACC-257 melanoma; over 50 µM in the test on A549 NSCLC; over 50 µM with HL-60(TB) leukemia; 45.7 µM in the test on MDA-MB-231 breast; over 50 µM in the test with SN12C renal. Besides, the TGI in the test on UO-31 renal, with OVCAR-8 ovarian and in the test with HOP-92 NSCLC was over 50 µM throughout.

`COc1c(C)c(O)c2c(c1C)OC(c1ccccc1)CC2=O` (configuration not stated): the TGI is over 100 µM in the test with HCT-15 colon; over 100 µM with A549 NSCLC; 90.5 µM in the test on HL-60(TB) leukemia; over 100 µM with SN12C renal; over 100 µM in the test on UO-31 renal; over 100 µM in the test on OVCAR-8 ovarian. Also, the TGI in the test with HOP-92 NSCLC is over 100 µM.

On to `Nc1nc2ncn(CC(O)COC(=O)c3ccccc3)c2c(=O)[nH]1` (configuration not stated), for which the TGI in the test on HCT-15 colon, with UACC-257 melanoma, in the test with A549 NSCLC, in the test with HL-60(TB) leukemia, with SN12C renal and in the test with UO-31 renal was over 100 µM each time. For the same compound, the TGI with OVCAR-8 ovarian and with HOP-92 NSCLC was over 100 µM each time.

Regarding `COC(=O)/C(=N/NC(C)(C)C)C(C(=O)OC)C(=O)C(=O)Nc1nc2ccc([N+](=O)[O-])cc2s1` (configuration not stated), the TGI in the test on HCT-15 colon, with UACC-257 melanoma, in the test on A549 NSCLC, with HL-60(TB) leukemia, in the test with SN12C renal and with UO-31 renal was over 100 µM in each case. Further, in the test on OVCAR-8 ovarian, the TGI is over 100 µM.

As to `O=C(O)COc1ccc(C(=O)/C(SS/C(C(=O)c2ccc(OCC(=O)O)c(Cl)c2Cl)=C2\C=C(c3ccccc3Cl)SS2)=C2/C=C(c3ccccc3Cl)SS2)c(Cl)c1Cl`, the TGI in the test with HCT-15 colon is over 54.6 µM; with UACC-257 melanoma, over 83.1 µM; with A549 NSCLC it was over 100 µM; in the test on HL-60(TB) leukemia, 7.01 µM; with SN12C renal, over 100 µM; in the test on UO-31 renal, 68.2 µM. For the same compound, the TGI in the test on OVCAR-8 ovarian was over 100 µM; in the test on HOP-92 NSCLC, 24.3 µM.

As to `CC1(C)OC(=O)C(=Cc2ccc([N+](=O)[O-])s2)C(=O)O1`, the TGI is 14.2 µM in the test with HCT-15 colon; 35.8 µM in the test on UACC-257 melanoma; over 100 µM in the test with A549 NSCLC; 5.59 µM with HL-60(TB) leukemia; 36.4 µM with MDA-MB-231 breast; 31.6 µM with SN12C renal. The TGI in the test with UO-31 renal is 23.6 µM; with OVCAR-8 ovarian, 31.3 µM; in the test on HOP-92 NSCLC, 37.9 µM.

`COC(=O)C1(O)c2ccccc2N=C2C1CCN2C` (configuration not stated): the TGI with HCT-15 colon, with UACC-257 melanoma, with A549 NSCLC, in the test with HL-60(TB) leukemia, in the test with SN12C renal and in the test with UO-31 renal was over 100 µM each time. For the same compound, the TGI with OVCAR-8 ovarian and in the test on HOP-92 NSCLC was over 100 µM throughout.
